Results from ChEMBL document CHEMBL1833798, “Coprismycins A and B, neuroprotective phenylpyridines from the dung beetle-associated bacterium, Streptomyces sp” (Bioorg Med Chem Lett, 2011).
One block for each molecule: values may come before it.

Legend:
[1] = tested on: SH-SY5Y; assay: Cytotoxicity against human SH-SY5Y cells assessed as cell viability at 1 to 5 uM after 24 hrs; format: cell-based
[2] = tested on: SH-SY5Y; assay: Neuroprotective activity against MPP-induced neurotoxicity in human SH-SY5Y cells assessed as increase in cell viability at 5 uM pretreated for 2 hrs before MPP challenge measured after 48 hrs relative to control; format: functional
[3] = tested on: HepG2; assay: Cytotoxicity against human HepG2 cells assessed as inhibition of cell proliferation; format: ADME, cell-based
[4] = tested on: A549; assay: Cytotoxicity against human A549 cells assessed as inhibition of cell proliferation; format: ADME, cell-based
[5] = tested on: SH-SY5Y; assay: Neuroprotective activity against MPP-induced neurotoxicity in human SH-SY5Y cells assessed as increase in cell viability pretreated for 2 hrs before MPP challenge measured after 48 hrs; format: functional, cell-based
[6] = tested on: HCT-116; assay: Cytotoxicity against human HCT116 cells assessed as inhibition of cell proliferation; format: ADME, cell-based
[7] = tested on: AGS; assay: Cytotoxicity against human AGS cells assessed as inhibition of cell proliferation; format: ADME, cell-based
[8] = tested on: MCF7; assay: Cytotoxicity against human MCF7 cells assessed as inhibition of cell proliferation; format: ADME, cell-based
[9] = in vitro; conditions: human, HCT116 cells
Description: Cytotoxicity against human HCT116 cells assessed as inhibition of cell proliferation at 50 uM

[10] = tested on: SH-SY5Y; assay: Neuroprotective activity against MPP-induced neurotoxicity in human SH-SY5Y cells assessed as increase in cell viability at 2.5 uM pretreated for 2 hrs before MPP challenge measured after 48 hrs relative to control; format: functional
[11] = tested on: SH-SY5Y; assay: Cytotoxicity against human SH-SY5Y cells assessed as cell viability at 5 uM after 48 hrs; format: cell-based
[12] = tested on: SH-SY5Y; assay: Neuroprotective activity against MPP-induced neurotoxicity in human SH-SY5Y cells assessed as decrease in cell viability at 5 uM pretreated for 2 hrs before MPP challenge measured after 48 hrs relative to control; format: functional

Structure (SMILES): COc1cc(-c2ccccn2)nc2cnsc12
- Activity [1]: Non-toxic
- Activity [2]: 80%
- IC50 [3]: Not Active
- IC50 [4]: Not Active
- Activity [5]: Dose-dependent effect
- IC50 [6]: Not Active
- IC50 [7]: Not Active
- IC50 [8]: Not Active

- inhibition at 50 µM [9]: 7.37%
Structure (SMILES): COc1cc(-c2ccccn2)nc(C#N)c1SC
- Activity [1]: Non-toxic
- Activity [2]: 83.3%
- IC50 [3]: Not Active
- IC50 [4]: Not Active
- Activity [5]: Dose-dependent effect
- IC50 [6]: Not Active
- IC50 [7]: Not Active
- IC50 [8]: Not Active

Structure (SMILES): COc1cc(-c2ccccc2)nc(/C=N/O)c1SC [COPRISMYCIN A]
- Activity [1]: Non-toxic
- Activity [2]: 80.3%
- IC50 [3]: Not Active
- IC50 [4]: Not Active
- Activity [5]: Dose-dependent effect
- IC50 [6]: Not Active
- IC50 [7]: Not Active
- IC50 [8]: Not Active

Structure (SMILES): COc1cc(-c2ccccc2)nc(/C=N\O)c1SC [COPRISMYCIN B]
- Activity [1]: Non-toxic
- IC50 [3]: Not Active
- IC50 [4]: Not Active
- Activity [10]: 88.4%
- Activity [5]: Dose-dependent effect
- IC50 [6]: Not Active
- Activity [11]: Toxic
- IC50 [7]: Not Active
- Activity [12]: 69.8%
- IC50 [8]: Not Active
